From the NIST ThermoML archive (doi:10.1021/je2003012)
Values joined by “and” are separate entries in the source; they are usually repeats but may differ in a detail not shown here. Identical values can stand only once.

Assay: relative permittivity at various frequencies (dimensionless); wn = mass fraction of the nth substance listed
Conditions: Liquid, direct capacitance:P =

O=C=O [carbon dioxide] + CCO
Conditions	relative permittivity
322.4 K, 11900 kPa, w2 = 0.1	1.94
322.4 K, 12200 kPa, w2 = 0.1	1.96
322.4 K, 13700 kPa, w2 = 0.1	2.01
322.4 K, 13900 kPa, w2 = 0.1	2.02
322.4 K, 15700 kPa, w2 = 0.1	2.06
322.4 K, 15800 kPa, w2 = 0.1	2.07
322.4 K, 16700 kPa, w2 = 0.1	2.09
322.4 K, 17100 kPa, w2 = 0.1	2.09
322.4 K, 17600 kPa, w2 = 0.1	2.11
322.4 K, 18600 kPa, w2 = 0.1	2.13
322.4 K, 19600 kPa, w2 = 0.1	2.14
322.4 K, 20600 kPa, w2 = 0.1	2.16
322.4 K, 21600 kPa, w2 = 0.1	2.18
322.4 K, 21700 kPa, w2 = 0.1	2.18
322.4 K, 22600 kPa, w2 = 0.1	2.19
322.4 K, 23600 kPa, w2 = 0.1	2.21
322.4 K, 24500 kPa, w2 = 0.1	2.22
322.4 K, 25500 kPa, w2 = 0.1	2.23
322.4 K, 26500 kPa, w2 = 0.1	2.24
322.4 K, 27500 kPa, w2 = 0.1	2.26
322.4 K, 28400 kPa, w2 = 0.1	2.27
322.4 K, 29900 kPa, w2 = 0.1	2.28
322.5 K, 10200 kPa, w2 = 0.05	1.53
322.5 K, 12100 kPa, w2 = 0.05	1.63
322.5 K, 13100 kPa, w2 = 0.05	1.66
322.5 K, 14200 kPa, w2 = 0.05	1.7
322.5 K, 14700 kPa, w2 = 0.05	1.7
322.5 K, 16000 kPa, w2 = 0.05	1.73
322.5 K, 16100 kPa, w2 = 0.05	1.73
322.5 K, 17200 kPa, w2 = 0.05	1.75
322.5 K, 18900 kPa, w2 = 0.05	1.78
322.5 K, 19500 kPa, w2 = 0.05	1.79
322.5 K, 20800 kPa, w2 = 0.05	1.8
322.5 K, 21800 kPa, w2 = 0.05	1.81
322.5 K, 22700 kPa, w2 = 0.05	1.82
322.5 K, 23600 kPa, w2 = 0.05	1.83
322.5 K, 24700 kPa, w2 = 0.05	1.84
322.5 K, 25800 kPa, w2 = 0.05	1.85
322.5 K, 26300 kPa, w2 = 0.05	1.86
322.5 K, 27900 kPa, w2 = 0.05	1.87
322.5 K, 28400 kPa, w2 = 0.05	1.87
322.5 K, 29300 kPa, w2 = 0.05	1.88
322.5 K, 29500 kPa, w2 = 0.05	1.88
322.5 K, 30300 kPa, w2 = 0.05	1.89
323.3 K, 9900 kPa, w2 = 0.152	2.06
323.3 K, 11000 kPa, w2 = 0.152	2.13
323.3 K, 12000 kPa, w2 = 0.152	2.18
323.3 K, 12700 kPa, w2 = 0.152	2.21
323.3 K, 13600 kPa, w2 = 0.152	2.25
323.3 K, 14700 kPa, w2 = 0.152	2.28
323.3 K, 15900 kPa, w2 = 0.152	2.31
323.3 K, 16900 kPa, w2 = 0.152	2.34
323.3 K, 17800 kPa, w2 = 0.152	2.36
323.3 K, 18600 kPa, w2 = 0.152	2.37
323.3 K, 18700 kPa, w2 = 0.152	2.38
323.3 K, 19500 kPa, w2 = 0.152	2.4
323.3 K, 20300 kPa, w2 = 0.152	2.41
323.3 K, 21700 kPa, w2 = 0.152	2.44
323.3 K, 22800 kPa, w2 = 0.152	2.45
323.3 K, 23100 kPa, w2 = 0.152	2.46
323.3 K, 23500 kPa, w2 = 0.152	2.47
323.3 K, 24500 kPa, w2 = 0.152	2.48
323.3 K, 25400 kPa, w2 = 0.152	2.5
323.3 K, 26500 kPa, w2 = 0.152	2.51
323.3 K, 28400 kPa, w2 = 0.152	2.54
323.3 K, 29500 kPa, w2 = 0.152	2.56
323.4 K, 9800 kPa, w2 = 0.212	2.59
323.4 K, 10600 kPa, w2 = 0.212	2.61
323.4 K, 11500 kPa, w2 = 0.212	2.67
323.4 K, 12400 kPa, w2 = 0.212	2.71
323.4 K, 13100 kPa, w2 = 0.212	2.75
323.4 K, 14100 kPa, w2 = 0.212	2.79
323.4 K, 15800 kPa, w2 = 0.212	2.85
323.4 K, 16600 kPa, w2 = 0.212	2.87
323.4 K, 17800 kPa, w2 = 0.212	2.9
323.4 K, 18800 kPa, w2 = 0.212	2.93
323.4 K, 19600 kPa, w2 = 0.212	2.95
323.4 K, 19700 kPa, w2 = 0.212	2.95
323.4 K, 21100 kPa, w2 = 0.212	2.98
323.4 K, 22900 kPa, w2 = 0.212	3.03
323.4 K, 23100 kPa, w2 = 0.212	3.03
323.4 K, 23200 kPa, w2 = 0.212	3.03
323.4 K, 24700 kPa, w2 = 0.212	3.06
323.4 K, 26000 kPa, w2 = 0.212	3.08
323.4 K, 26700 kPa, w2 = 0.212	3.1
323.4 K, 27900 kPa, w2 = 0.212	3.12
323.4 K, 29500 kPa, w2 = 0.212	3.14
323.4 K, 30600 kPa, w2 = 0.212	3.15
333.2 K, 10500 kPa, w2 = 0.05	1.32
333.2 K, 11200 kPa, w2 = 0.05	1.41
333.2 K, 11900 kPa, w2 = 0.212	2.38
333.2 K, 12100 kPa, w2 = 0.05	1.48
333.2 K, 12900 kPa, w2 = 0.212	2.45
333.2 K, 13000 kPa, w2 = 0.05	1.54 and 1.53
333.2 K, 13200 kPa, w2 = 0.212	2.47
333.2 K, 13700 kPa, w2 = 0.05	1.57
333.2 K, 14100 kPa, w2 = 0.212	2.52
333.2 K, 14700 kPa, w2 = 0.212	2.54
333.2 K, 14900 kPa, w2 = 0.05	1.62
333.2 K, 15800 kPa, w2 = 0.212	2.59
333.2 K, 15900 kPa, w2 = 0.05	1.64
333.2 K, 16200 kPa, w2 = 0.212	2.61
333.2 K, 16900 kPa, w2 = 0.212	2.62
333.2 K, 17000 kPa, w2 = 0.05	1.67
333.2 K, 17300 kPa, w2 = 0.212	2.64
333.2 K, 17600 kPa, w2 = 0.05	1.69
333.2 K, 18500 kPa, w2 = 0.212	2.68
333.2 K, 19100 kPa, w2 = 0.05	1.72
333.2 K, 19100 kPa, w2 = 0.212	2.7
333.2 K, 19200 kPa, w2 = 0.212	2.7
333.2 K, 19400 kPa, w2 = 0.05	1.72
333.2 K, 21000 kPa, w2 = 0.05	1.75
333.2 K, 21200 kPa, w2 = 0.212	2.75
333.2 K, 21300 kPa, w2 = 0.212	2.75
333.2 K, 21600 kPa, w2 = 0.05	1.75
333.2 K, 22900 kPa, w2 = 0.05	1.77
333.2 K, 23000 kPa, w2 = 0.212	2.79
333.2 K, 23100 kPa, w2 = 0.212	2.79
333.2 K, 23700 kPa, w2 = 0.05	1.78
333.2 K, 24900 kPa, w2 = 0.212	2.83
333.2 K, 25000 kPa, w2 = 0.05	1.8
333.2 K, 25000 kPa, w2 = 0.212	2.83
333.2 K, 25200 kPa, w2 = 0.212	2.83
333.2 K, 25500 kPa, w2 = 0.212	2.85
333.2 K, 26800 kPa, w2 = 0.212	2.86
333.2 K, 26900 kPa, w2 = 0.05	1.82
333.2 K, 27000 kPa, w2 = 0.212	2.87
333.2 K, 27400 kPa, w2 = 0.05	1.82
333.2 K, 28400 kPa, w2 = 0.212	2.9
333.2 K, 28800 kPa, w2 = 0.05	1.83
333.2 K, 29900 kPa, w2 = 0.05	1.84
333.2 K, 30600 kPa, w2 = 0.212	2.94
333.3 K, 11800 kPa, w2 = 0.152	1.99
333.3 K, 11900 kPa, w2 = 0.1	1.74
333.3 K, 12900 kPa, w2 = 0.1	1.81
333.3 K, 12900 kPa, w2 = 0.152	2.07
333.3 K, 13700 kPa, w2 = 0.1	1.86
333.3 K, 13800 kPa, w2 = 0.152	2.11
333.3 K, 14800 kPa, w2 = 0.1	1.9
333.3 K, 14800 kPa, w2 = 0.152	2.16
333.3 K, 15700 kPa, w2 = 0.1	1.94
333.3 K, 15900 kPa, w2 = 0.152	2.2
333.3 K, 16700 kPa, w2 = 0.1	1.96
333.3 K, 16700 kPa, w2 = 0.152	2.22
333.3 K, 17700 kPa, w2 = 0.152	2.26
333.3 K, 17800 kPa, w2 = 0.1	2
333.3 K, 18500 kPa, w2 = 0.1	2.01
333.3 K, 18700 kPa, w2 = 0.152	2.28
333.3 K, 19400 kPa, w2 = 0.1	2.03
333.3 K, 19600 kPa, w2 = 0.1	2.03
333.3 K, 19700 kPa, w2 = 0.152	2.31
333.3 K, 20600 kPa, w2 = 0.1	2.06
333.3 K, 20800 kPa, w2 = 0.152	2.33
333.3 K, 21700 kPa, w2 = 0.1	2.08
333.3 K, 22000 kPa, w2 = 0.152	2.36
333.3 K, 22600 kPa, w2 = 0.1	2.09
333.3 K, 22700 kPa, w2 = 0.152	2.37
333.3 K, 23500 kPa, w2 = 0.152	2.38
333.3 K, 23900 kPa, w2 = 0.1	2.11
333.3 K, 24500 kPa, w2 = 0.152	2.4
333.3 K, 24800 kPa, w2 = 0.1	2.12
333.3 K, 25200 kPa, w2 = 0.1	2.13
333.3 K, 25600 kPa, w2 = 0.1	2.14 and 2.13
333.3 K, 25600 kPa, w2 = 0.152	2.42
333.3 K, 26500 kPa, w2 = 0.1	2.15
333.3 K, 26600 kPa, w2 = 0.1	2.15
333.3 K, 26600 kPa, w2 = 0.152	2.43
333.3 K, 27200 kPa, w2 = 0.1	2.16
333.3 K, 27500 kPa, w2 = 0.1	2.16
333.3 K, 27600 kPa, w2 = 0.152	2.45
333.3 K, 27900 kPa, w2 = 0.1	2.16
333.3 K, 28400 kPa, w2 = 0.152	2.46
333.3 K, 28500 kPa, w2 = 0.1	2.17
333.3 K, 29200 kPa, w2 = 0.1	2.18
333.3 K, 29200 kPa, w2 = 0.152	2.47
333.3 K, 29900 kPa, w2 = 0.152	2.48
